The text below walks through data of US20190185544A1, “COMPOSITIONS AND METHODS OF MODULATING ABETA PROTEIN” (University of South Florida, priority 2016, published 2019).

In one assay the test system is N-terminus of APP. As to the kind of experiment: Co-immunoprecipitation and co-localisation with N-terminal APP in CHO/APPwt cells. The assay is classed as binding, human. As to conditions: peptides 10 μM or apoE 10 μg/mL, 2 h; IP with 6H3B5 or pN-APP. How it is done:
Total secreted APP (t-sAPP) and full-length APP (f-APP) in total (inputs), immunoprecipitates and immunodepleted media and lysates were determined by WB using 22C11 or anti-C-terminal APP751/70 antibody (pC-APP), respectively (FIG. 20A left panels and FIG. 20B, top panels). Alternatively, conditioned media and cell lysates were IP with anti-N-terminal APP41/66 antibody (pN-APP) and apoE, or 6KApoEp and ApoEp, was determined using anti-human apoE antibody (ApoE1H4; FIG. 20A, right panels) or 6H3B5, respectively (FIG. 20B, bottom panels). In addition, CHO/APPwt cells were plated at 8 well-chambers at 1×10^5/well for 24 h, treated with 6K, ApoEp or 6KApoEp at 10 μM for 2 h, fixed in 4% paraformaldehyde and stained with 6H3B5 and pN-APP antibodies (FIG. 20C). Alexa Fluor 488 goat anti-mouse IgG (green) was used to detect ApoEp and 6KApoEp, while Alexa Fluor 594 donkey anti-rabbit IgG (red) was used to detect N-terminal APP. DAPI co-staining was done to show nuclear DNA. Homogenates prepared from three TgAPPwt mice (2 female/1 male), two AD patients (AD1[…], AD2[…]) and two normal age-matched control cortices (Ctrl1[…], Ctrl2[…]) were also IP with 6H3B5 or pN-APP and t-APP and apoE were determined using 6E10 and mApoE, respectively (FIGS. 20D-20E).
Total secreted APP in conditioned media and full length APP in cell lysates were then determined by WB using anti-N-terminal (22C11) and anti-C-terminal APP antibodies (pC-APP), respectively. […] In addition, ApoEp and 6KApoEp colocalized with N-terminal APP in cultured CHO/APPwt cells as determined by immunofluorescence staining with 6H3B5 and pN-APP antibodies (FIG. 20C), respectively, confirming that N-terminal APP physically associates with apoE in cell culture. […]
WB analyses were performed as previously described^43,44. […] For all other proteins detected by WB, 10% tris-SDS gels were used. Densitometry analysis was performed as previously described using a FluorS Multiimager with Quantity One™ software 43. […]

The next assay deals with CHO/APPswe cells. Put plainly: Aβ and β-CTF in CHO/APPwt compared with CHO/APPswe cells. The assay is classed as cell-based, Chinese hamster. Particulars: apoE4 0, 5, 10 μg/mL or 6KApoEp 0, 5, 10 μM, 2 h, serum-free medium. Here is the method: CHO cells engineered to express human wild-type APP (CHO/APPwt) or Swedish mutant APP (CHO/APPswe) were obtained. These cells were cultured in 96 or 24 well plates at 4×10^4 or 2×10^5 cells/well, respectively, in Dulbecco's modified Eagle's medium (DMEM) with 10% fetal bovine serum, 1 mM sodium pyruvate and 100 U/mL of penicillin/streptomycin (Invitrogen, Thermo Fisher Scientific). In addition, murine N2a cells transfected with APPwt (N2a/APPwt were obtained), SH-SY5Y cells transfected with APPswe and wild-type SH-SY5Y cells (ATCC, Manassas, Va.) were cultured as previously described^42. Primary hN2TM human neurons (Neuromics, Edina, Minn.) were cultured in hN2TM human neuron culture media and primary HCN2 human neurons (ATCC) were cultured in DMEM with 4 mM L-glutamine adjusted to contain 1.5 g/L sodium bicarbonate, 4.5 g/L glucose, fetal bovine serum (10%).

Another assay deals with CHO/APPwt cells. Put plainly: APP processing and cell surface protein expression in CHO/APPwt cells (ELISA, WB, biotinylation, flow cytometry, confocal microscopy). Type of assay: cell-based, Chinese hamster. Here is the method: In addition, full-length APP (f-APP, short and long exp, exposure), α/β-CTF and total APP in cell lysates were analyzed by WB using anti-C-terminal APP750/70 (pC-APP, left panel, FIG. 23C) and anti-N-terminal APP antibody (6E10, right panel, FIG. 23C). Cell lysates were also biotinylated and immunoprecipitated using Neutravidin beads and intracellular proteins obtained by Neutravidin depletion (intra) and cell surface proteins obtained by Neutravidin precipitation (cell surf) were analyzed for f-APP, LDLR and LRP1 by WB using 6E10, anti-LDLR and anti-LRP1 (FIG. 23D). Band density ratios of cell surf or intra to total f-APP was determined by densitometry analysis (FIG. 23E). Cellular membrane associated full-length APP was analyzed by flow cytometry and presented as means±s.d. median FL-1-A (FIG. 23F). […] Asterisk indicates P<0.05 compared with Ctrl as determined by t test.
In addition, some of the cells were biotinylated, cell lysates were immunoprecipitated using Neutravidin beads and cell surface (cell surf) proteins obtained by Neutravidin precipitation, intracellular (intra) proteins obtained by Neutravidin depletion and total proteins were analyzed for full-length APP by WB using pC-APP (pAPP751/770) (FIG. 27B). […]

N-terminus of APP, sequence (P05067 18-189 limits assumed): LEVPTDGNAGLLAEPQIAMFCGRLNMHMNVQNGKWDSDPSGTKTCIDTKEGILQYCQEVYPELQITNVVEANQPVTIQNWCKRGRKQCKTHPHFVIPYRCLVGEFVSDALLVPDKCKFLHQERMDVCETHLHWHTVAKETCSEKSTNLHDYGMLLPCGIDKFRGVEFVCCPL

With “ApoE4: human recombinant apolipoprotein E4 protein (BioVision)”, the “immunoprecipitation and localization with N-terminal APP” value in the assay with N-terminus of APP is “immunoprecipitated and localized with N-terminal APP in vivo and in vitro”. In the assay with CHO/APPswe cells, the “Aβ and β-CTF levels in CHO/APPwt compared with CHO/APPswe cells” value is “enhanced Aβ and β-CTF levels much more in CHO/APPwt cells compared with CHO cells overexpressing APP with the Swedish mutation”. Moreover, the “Aβ, β-CTF and sAPPα levels” value in the assay with CHO/APPwt cells (6KApoEp 10 μM, apoE4 10 μg/mL, 2 h) is “markedly increased Aβ and β-CTF levels, while reducing sAPPα levels”. Moreover, the “cell surface protein levels of LDLR or LRP1” value in the assay on CHO/APPwt cells (absence or presence of β- or γ-secretase inhibitors) is recorded as “did not alter cell surface protein levels of LDLR or LRP1”.
“ApoE3: human recombinant apolipoprotein E3 protein (BioVision)”: the “immunoprecipitation and localization with N-terminal APP” value with N-terminus of APP was “immunoprecipitated and localized with N-terminal APP in vivo and in vitro”.
